This passage reports IC50 results from patent US9737545B2 (MERCK SHARP & DOHME CORP., priority 2013, dated 2017).

This experiment addresses T1, wildtype HIV-1 protease (Human immunodeficiency virus type 1 group M subtype B, UniProt P04585).
T1 construct: preincubated with the HIV-1 protease (wild type) enzyme in assay buffer; made in house; host or cells: Escherichia coli
Nature of the experiment: Assay for Inhibition of Microbial Expressed HIV Protease (Pepcleav). It counts as biochemical. The procedure:
Assay for Inhibition of Microbial Expressed HIV Protease (“Pepcleav”)
Studies of the inhibition of the wildtype HIV-1 protease (which was expressed in Escherichia coli) were carried out with a peptide substrate [Val-Ser-Gln-Asn-(βnaphthyl)Ala-Pro-Ile-Val (SEQ ID NO: 1)]. The inhibitor was first preincubated with the HIV-1 protease (wild type) enzyme in assay buffer (50 mM sodium acetate, pH 5.5, 100 mM NaCl, and 0.1% BSA) for 30 minutes at room temperature. Substrate was added to 400 micromolar in a total volume of 20 microliters containing 20 picomolar HIV-1 protease (final) and the reaction was incubated for 1 hour at 30° C. The reaction was quenched with the addition of formic acid and indinavir to 0.012% and 150 nM final concentrations, respectively. The product formation was determined after separation of product and substrate on a Zorbax Eclipse XDB-C18 column connected to an API 4000 mass spectrometer (Applied Biosystems) with multiple reaction monitoring (transitions were 644.5/428.9 and 615.4/422.2 (M1/M3) for product and indinavir respectively). The extent of inhibition of the reaction was determined from the peak area of the products. Analysis of the products, independently synthesized, provided quantitation standards and confirmation of the product composition.

Each structure is given as a SMILES string.

A word on the IC50: it is the midpoint of a concentration-inhibition curve. A lower IC50 goes with higher potency. `COC(=O)N[C@H](C(=O)Nc1ccccc1CC[C@@H]1CN[C@H](C#N)CO1)C(c1ccccc1)c1ccccc1` [Example 37, methyl [(1S)-2-[(2-{2-[(2R,5R)-5-cyanomorpholin-2-yl]ethyl}phenyl)amino]-1-(diphenylmethyl)-2-oxoethyl]carbamate] registered a 50% inhibitory concentration (IC50) of 246 nM.

In the case of `COC(=O)N[C@H](C(=O)Nc1ccccc1CC[C@@H]1CN[C@H](c2nnn[nH]2)CO1)C(c1ccccc1)c1ccccc1` [Example 38, Nα-(methoxycarbonyl)-β-phenyl-N-(2-{2-[(2R,5R)-5-(1H-tetrazol-5-yl)morpholin-2-yl]ethyl}phenyl)-L-phenylalaninamide], the midpoint of inhibition, the IC50, lay at 2 nM.

`COC(=O)N[C@H](C(=O)Nc1ccccc1CC[C@@H]1CN[C@H](c2nnnn2Cc2ccccc2)CO1)C(c1ccccc1)c1ccccc1` [Example 39, methyl [(1S)-2-[(2-{2-[(2R,5R)-5-(1-benzyl-1H-tetrazol-5-yl)morpholin-2-yl]ethyl}phenyl)amino]-1-(diphenylmethyl)-2-oxoethyl]carbamate] yielded a 50% inhibitory concentration (IC50) of 653 nM.

Compound `COC(=O)N[C@H](C(=O)Nc1ccccc1CC[C@@H]1CN[C@H](c2ncon2)CO1)C(c1ccccc1)c1ccccc1` [Example 41, methyl {(1S)-1-(diphenylmethyl)-2-[(2-{2-[(2R,5R)-5-(1,2,4-oxadiazol-3-yl)morpholin-2-yl]ethyl}phenyl)amino]-2-oxoethyl}carbamate] registered an IC50 of 304 nM.

For `COC(=O)N[C@H](C(=O)Nc1ccccc1CC[C@@H]1CN[C@H](c2ncc[nH]2)CO1)C(c1ccccc1)c1ccccc1` [Example 42], it took 2.62 nM to reach half-maximal inhibition (IC50).

In the case of `COC(=O)N[C@H](C(=O)Nc1ccccc1CC[C@@H]1CN[C@H](c2ncc(C)[nH]2)CO1)C(c1ccccc1)c1ccccc1` [Example 43, methyl {(1S)-1-(diphenylmethyl)-2-[(2-{2-[(2R,5R)-5-(5-methyl-1H-imidazol-2-yl)morpholin-2-yl]ethyl}phenyl)amino]-2-oxoethyl}carbamate], the IC50 is 1.02 nM.

For the compound `COC(=O)N[C@H](C(=O)Nc1ccccc1CC[C@@H]1CN[C@H](c2ncc(Cc3ccccc3)[nH]2)CO1)C(c1ccccc1)c1ccccc1` [Example 44, N-(2-{2-[(2R,5R)-5-(5-benzyl-1H-imidazol-2-yl)morpholin-2-yl]ethyl}phenyl)-Nα-(methoxycarbonyl)-β-phenyl-L-phenylalaninamide], the IC50 was 0.568 nM.

For `COC(=O)N[C@H](C(=O)Nc1ccccc1CC[C@@H]1CN[C@H](c2ncc(-c3ccccc3)[nH]2)CO1)C(c1ccccc1)c1ccccc1` [Example 45, Nα-(methoxycarbonyl)-β-phenyl-N-(2-{2-[(2R,5R)-5-(5-phenyl-1H-imidazol-2-yl)morpholin-2-yl]ethyl}phenyl)-L-phenylalaninamide], the midpoint of inhibition, the IC50, lay at 0.041 nM.

The compound `COC(=O)N[C@H](C(=O)Nc1ccccc1CC[C@@H]1CN[C@H](c2cnc(-c3ccccc3)[nH]2)CO1)C(c1ccccc1)c1ccccc1` [Example 46, Nα-(methoxycarbonyl)-β-phenyl-N-(2-{2-[(2R,5R)-5-(2-phenyl-1H-imidazol-5-yl)morpholin-2-yl]ethyl}phenyl)-L-phenylalaninamide] gave an IC50 of 841 nM.

Consider `COC(=O)N[C@H](C(=O)Nc1ccccc1CC[C@@H]1CN[C@H](c2cnc(C)[nH]2)CO1)C(c1ccccc1)c1ccccc1` [Example 47, Nα-(methoxycarbonyl)-N-(2-{2-[(2R,5R)-5-(2-methyl-1H-imidazol-5-yl)morpholin-2-yl]ethyl}phenyl)-β-phenyl-L-phenylalaninamide], for which it took 378 nM to reach half-maximal inhibition (IC50).

`COC(=O)N[C@H](C(=O)Nc1ccccc1CC[C@@H]1CN[C@H](c2nc(C)c(C)[nH]2)CO1)C(c1ccccc1)c1ccccc1` [Example 48, N-(2-{2-[(2R,5R)-5-(4,5-dimethyl-1H-imidazol-2-yl)morpholin-2-yl]ethyl}phenyl)-Nα-(methoxycarbonyl)-β-phenyl-L-phenylalaninamide] displayed an IC50 of 1.81 nM.

For the compound `C#C[C@@H]1CO[C@H](CCc2ccccc2NC(=O)[C@@H](NC(=O)OC)C(c2ccccc2)c2ccccc2)CN1` [Example 49, N-(2-{2-[(2R,5R)-5-ethynylmorpholin-2-yl]ethyl}phenyl)-Nα-(methoxycarbonyl)-β-phenyl-L-phenylalaninamide], the midpoint of inhibition, the IC50, lay at 824 nM.

The compound `COC(=O)N[C@H](C(=O)Nc1ccccc1CC[C@@H]1CN[C@H](c2cn(Cc3ccccc3)nn2)CO1)C(c1ccccc1)c1ccccc1` [Example 50, N-(2-{2-[(2R,5R)-5-(1-benzyl-1H-1,2,3-triazol-4-yl)morpholin-2-yl]ethyl}phenyl)-Nα-(methoxycarbonyl)-β-phenyl-L-phenylalaninamide] displayed an IC50 of 36.3 nM.

`COC(=O)N[C@H](C(=O)Nc1ccccc1CC[C@@H]1CN[C@H](c2cnnn2Cc2ccccc2)CO1)C(c1ccccc1)c1ccccc1` [Example 51, N-(2-{2-[(2R,5R)-5-(1-benzyl-1H-1,2,3-triazol-5-yl)morpholin-2-yl]ethyl}phenyl)-Nα-(methoxycarbonyl)-β-phenyl-L-phenylalaninamide] yielded a half-maximal inhibitory concentration (IC50) of 576 nM. Compared with the last compound, the IC50 is about 16-fold higher.

The compound `COC(=O)N[C@H](C(=O)Nc1ccccc1CC[C@@H]1CN[C@H](c2cnn[nH]2)CO1)C(c1ccccc1)c1ccccc1` [Example 52, Nα-(methoxycarbonyl)-β-phenyl-N-(2-{2-[(2R,5R)-5-(1H-1,2,3-triazol-5-yl)morpholin-2-yl]ethyl}phenyl)-L-phenylalaninamide] returned a half-maximal inhibitory concentration (IC50) of 250 nM. Compared with the last compound, the IC50 is about 2.3-fold lower.

The compound `COC(=O)N[C@H](C(=O)Nc1ccccc1CC[C@@H]1CN[C@H](c2cc3ccccc3[nH]2)CO1)C(c1ccccc1)c1ccccc1` [Example 53, N-(2-{2-[(2R,5R)-5-(1H-indol-2-yl)morpholin-2-yl]ethyl}phenyl)-Nα-(methoxycarbonyl)-β-phenyl-L-phenylalaninamide] yielded an IC50 of 44.4 nM.

Compound `COC(=O)N[C@H](C(=O)Nc1ccccc1CC[C@@H]1CN[C@H](c2cc3cc(C)ccc3[nH]2)CO1)C(c1ccccc1)c1ccccc1` [Example 54, Nα-(methoxycarbonyl)-N-(2-{2-[(2R,5R)-5-(5-methyl-1H-indol-2-yl)morpholin-2-yl]ethyl}phenyl)-β-phenyl-L-phenylalaninamide] displayed a half-maximal inhibitory concentration (IC50) of 143 nM.

As to `COC(=O)N[C@H](C(=O)Nc1ccccc1CC[C@@H]1CN[C@H](c2cc3cc(C(F)(F)F)ccc3[nH]2)CO1)C(c1ccccc1)c1ccccc1` [Example 55], half-maximal inhibition (IC50) required 152 nM.

In the case of `COC(=O)N[C@H](C(=O)Nc1ccccc1CC[C@@H]1CN[C@H](c2cc3cc(OC)ccc3[nH]2)CO1)C(c1ccccc1)c1ccccc1` [Example 56, Nα-(methoxycarbonyl)-N-(2-{2-[(2R,5R)-5-(5-methoxy-1H-indol-2-yl)morpholin-2-yl]ethyl}phenyl)-β-phenyl-L-phenylalaninamide], the midpoint of inhibition, the IC50, lay at 98.3 nM.

`COC(=O)N[C@H](C(=O)Nc1ccccc1CC[C@@H]1CN[C@H](c2cc3cc(Cl)ccc3[nH]2)CO1)C(c1ccccc1)c1ccccc1` [Example 57, N-(2-{2-[(2R,5R)-5-(5-chloro-1H-indol-2-yl)morpholin-2-yl]ethyl}phenyl)-Nα-(methoxycarbonyl)-β-phenyl-L-phenylalaninamide] displayed an IC50 of 70.2 nM.

In turn, `COC(=O)N[C@H](C(=O)Nc1ccccc1CC[C@@H]1CN[C@H](c2cc3ccc(Cl)cc3[nH]2)CO1)C(c1ccccc1)c1ccccc1` [Example 58, N-(2-{2-[(2R,5R)-5-(6-chloro-1H-indol-2-yl)morpholin-2-yl]ethyl}phenyl)-Nα-(methoxycarbonyl)-β-phenyl-L-phenylalaninamide] displayed a concentration for half-maximal inhibition (IC50) of 76.2 nM.

Take `COC(=O)N[C@H](C(=O)Nc1ccccc1CC[C@@H]1CN[C@H](c2cc3cccc(Cl)c3[nH]2)CO1)C(c1ccccc1)c1ccccc1` [Example 59, N-(2-{2-[(2R,5R)-5-(7-chloro-1H-indol-2-yl)morpholin-2-yl]ethyl}phenyl)-Nα-(methoxycarbonyl)-β-phenyl-L-phenylalaninamide]: the IC50 stood at 96.4 nM. This IC50 and that of the compound before are within 1.5-fold of each other.

Consider `COC(=O)N[C@H](C(=O)Nc1ccccc1CC[C@@H]1CN[C@H](c2cc3c(Cl)cccc3[nH]2)CO1)C(c1ccccc1)c1ccccc1` [Example 60, N-(2-{2-[(2R,5R)-5-(4-chloro-1H-indol-2-yl)morpholin-2-yl]ethyl}phenyl)-Nα-(methoxycarbonyl)-β-phenyl-L-phenylalaninamide], for which 88.6 nM corresponded to half-maximal inhibition (IC50). This IC50 and that of the compound before are within 1.5-fold of each other.

`COC(=O)N[C@H](C(=O)Nc1ccccc1CC[C@@H]1CN[C@H](c2cc3cnccc3[nH]2)CO1)C(c1ccccc1)c1ccccc1` [Example 61, Nα-(methoxycarbonyl)-β-phenyl-N-(2-{2-[(2R,5R)-5-(1H-pyrrolo[3,2-c]pyridin-2-yl)morpholin-2-yl]ethyl}phenyl)-L-phenylalaninamide] displayed an IC50 of 550 nM.

For `COC(=O)N[C@H](C(=O)Nc1ccccc1CC[C@@H]1CN[C@H](c2cc3cccnc3[nH]2)CO1)C(c1ccccc1)c1ccccc1` [Example 62, Nα-(methoxycarbonyl)-β-phenyl-N-(2-{2-[(2R,5R)-5-(1H-pyrrolo[2,3-b]pyridin-2-yl)morpholin-2-yl]ethyl}phenyl)-L-phenylalaninamide], half-maximal inhibition (IC50) required 156 nM.

In the case of `O=C(C[C@H](c1ccccc1)c1ccc(F)cc1)Nc1cncc(F)c1CC[C@@H]1CN[C@H](c2nc3cc(F)c(F)cc3[nH]2)CO1` [Example 70, (3R)—N-(4-{2-[(2R,5R)-5-(5,6-difluoro-1H-benzimidazol-2-yl)morpholin-2-yl]ethyl}-5-fluoropyridin-3-yl)-3-(4-fluorophenyl)-3-phenylpropanamide], the IC50 was determined as 0.01 nM.
